Results as given in article PMC8533149 (Biomolecules, 2021).

System: HIV-1 LTR-III G-quadruplex (FAM/TAMRA-labeled LTR-III)
Assay: FRET melting assay, LTR-III G4
Type: binding
Conditions: Table S1 primary screening, ligand:ODN 50:1, singlicate
Protocol: To evaluate stabilizing properties of the ligands in a complex with oligodeoxyribonucleotides (ODNs) melting with fluorescence registration was used. ODN (0.5 μM) (Table 1), labeled with 6-carboxyfluorescein (FAM) and 6-carboxytetramethylrhodamine (TAMRA) at the 5′- and 3′-end, respectively, were folded in lithium cacodylate buffer (10 mM, pH 7.4) with 100 mM KCl by heating at 95 °C for 5 min and gradually cooling to r.t. GFP chromophore analogs (5 mM solution in DMSO) were diluted with the same buffer to the final concentration of 25 μM and mixed with an equal volume of 0.5 μM ODN solution resulting in a molar ratio of 50:1 (total volume was 50 μL). For the titration experiments molar ratios of 20:1 and 2:1 were used. Samples were analyzed using DTprime qPCR system (DNA-Technology LLC, Moscow, Russia). Fluorescence was registered by detection of FAM emission at 520 nm upon excitation at 495 nm in the temperature range of 30–95 °C with 1 °C/min gradient. Tm was determined using the instrument software and ΔTm was calculated relative to ODN Tm in a buffer solution containing 0.25% (v/v) DMSO. The primary and secondary screening were carried out in singlicate and triplicate, respectively.

SMILES	LTR-III ΔTm [°C]
NC(=C1N=C2C=CC=CN2C1=O)c1ccc(Cl)cc1 [ZS 228]	0.3
COc1ccccc1C=C1N=C(C)N(C)C1=O [M 1583.5]	0.1
COC(=O)c1noc(C(=O)N2CCCCC2)c1-c1ccc(OC)cc1 [SA 561C]	-1
CN1C(=O)C(=Cc2cc(Cl)c(O)c(Cl)c2)N=C1C=Cc1ccncc1 [N 901]	0.4
COc1ccc(/C=C2\N=C(C)N(C)C2=O)cc1OC [M 1583.6]	0
COc1cc(O)ccc1C=C1N=C(C=Cc2ccccn2)N(C)C1=O [M 2766]	1.1
CC1=NC(=Cc2ccccc2)C(=O)N1Cc1ccccc1 [ZS142]	-1.4
CC1=NC(=Cc2ccc(O)cc2)C(=O)N1 [GA 01]	-0.4
CC(C)OC(=O)c1noc(C(=O)NCc2ccccc2)c1-c1ccccc1F [SA 331E]	-0.9
CC1=NC(=C(N)c2ccc(Cl)cc2)C(=O)N1C [ZS 178]	-0.3
CC1=NC(=Cc2cc3c4c(c2)CCCN4CCC3)C(=O)N1CCO [N 111]	1
COc1ccc(C(=O)Oc2ccccc2)cc1 [M 939]	-1.1
COc1ccc(C=C2N=C(C)N(C)C2=O)cc1 [M 1814]	-0.3
COc1ccc(C=C2N=C(C=C(O)c3ccc(C)cc3)N(C)C2=O)cc1 [SV 29]	-0.2
CN1C(=O)C(=Cc2ccc(O)cc2)N=C1C=Cc1cccs1 [ccA 19]	-0.1
CC(C)OC(=O)c1noc(C(=O)N2CCOCC2)c1-c1ccc(C(C)C)cc1 [SA 342A]	-0.3
CN1C(=O)C(=Cc2ccc(O)cc2)N=C1CCCCCNC(=O)OC(C)(C)C [X 21]	-0.1
CC(C)C1=NC(=Cc2ccc(O)cc2)C(=O)N1C [GA 06]	-0.7
COc1cc(O)ccc1C=C1N=C(C=C(C#N)c2ccccc2)N(C)C1=O [MID 151]	0.2
CN1C(=O)C(=Cc2ccc(O)cc2)N=C1C=Cc1ccccc1 [ccA 1]	0.6
CCC1=NC(=Cc2c[nH]c3ccccc23)C(=O)O1 [SV 11]	0
CC1=NC(=Cc2ccccc2F)C(=O)N1C [SV 50.9]	-0.2
CC1=NC(=Cc2ccc([N+](=O)[O-])cc2)C(=O)N1C [SA 412]	0
COc1cc(C=C2SC(=S)NC2=O)c(OC)cc1O [SAI 115]	-0.3
COc1ccc(O)c(C=C2N=C(C)N(C)C2=O)c1 [M 2360]	-0.3
COc1ccc(C=CC2=NC(=Cc3ccncc3)C(=O)N2C)cc1 [N 813]	0.6
CON1C(=O)C=NC(=Cc2ccc(O)cc2)C1=O [M 577]	0.1

SMILES	LTR-III ΔTm [°C]
COc1cc(/C=C/c2ccc(O)cc2OC)oc(=O)c1 [SAI 32]	0.4
CC(C)OC(=O)c1noc(C(=O)N2CCOCC2)c1-c1cccc(C(F)(F)F)c1 [SA 344A]	-0.5
CC1=NC(=Cc2cc(F)c(O)c(F)c2)C(=O)N1C [M 2296]	-0.4
CNC(=O)c1onc(C(=O)OC)c1-c1ccc(OC)cc1 [SA 561A]	-0.3
CC1=NC(=Cc2ccc(C(=O)O)cc2)C(=O)N1C [AI 89]	-0.5
COc1ccc(C=C2N=C(C=C(O)c3ccc(F)cc3)N(C)C2=O)cc1 [SV 30]	-0.4
CC1=NC(=Cc2c[nH]c3cccc(C)c23)C(=O)N1C [M 1974]	0
CC(=O)Oc1ccc(C=C2N=C(C)N(C)C2=O)cc1 [M 2370]	0
C#CCN1C(=O)C(=Cc2ccc(O)cc2)N=C1C [X 12]	0.2
COc1ccc(CN(C(C)=O)C(C)C2=NC(=Cc3ccc(O)cc3)C(=O)N2C)cc1 (centres unmarked) [X 23]	0.5
CCN(CC)c1ccc(C=C2N=C(C)N(CCCCO[Si](c3ccccc3)(c3ccccc3)C(C)(C)C)C2=O)cc1 [N 162]	0.2
COc1cc(/C=C2N=C(/C=C/c3ccccc3)N(C)C\2=O)ccc1O [M 2499a]	0.1
CC(C)OC(=O)c1noc(C(=O)NCc2ccccc2)c1-c1cccs1 [SA 330E]	-0.7
Cc1cc(/C=C2\SC(=S)NC2=O)ccc1O [HMBR]	-0.6
CN(C)C=CC1=NC(=C(N)c2ccccc2)C(=O)N1C [ZS 182]	0
CC(=O)NC(=Cc1ccccc1)C(=O)NO [SV 6]	0
CNC(=O)c1onc(C(=O)OC(C)C)c1-c1cccs1 [SA 330A]	-0.5
CN1C(=O)C(=Cc2ccc(OCc3ccccc3)cc2)N=C1C(C)(C)C [X 20]	-0.2
CC(=O)NCCN1C(=O)C(=Cc2ccc(O)cc2)N=C1C=Cc1ccc(O)cc1 [ccE 2]	-0.1
O=C1NC(=S)SC1=Cc1ccc(O)c(Br)c1 [SAI 117]	-0.2
CC1=NC(=Cc2ccccc2)C(=O)N1CC(N)=O [SA 152]	-0.3
CC1=NC(=Cc2cccs2)C(=O)N1C [N 1021]	0.3
CC1=NC(=C(N)c2ccccc2)C(=O)N1C [ZS 109]	-0.7
COc1ccc(C=C2N=C3C(=O)NC(=O)CN3C2=O)cc1 [SA 130]	0.4
CN1C(=O)C(=Cc2ccc(O)cc2)N=C1C=Cc1cc(Br)c(O)c(Br)c1 [ccA 12]	0.2
CC(C)OC(=O)c1noc(=O)c(O)c1-c1ccc(N(C)C)cc1 [SA 305C]	-0.6
CC(C)OC(=O)c1noc(C(=O)NCc2ccccc2)c1-c1ccc(C(C)C)cc1 [SA 342B]	-0.5

SMILES	LTR-III ΔTm [°C]
COC(=O)c1ccc(C=C2N=C(C)N(C)C2=O)cc1 [SA 400]	0
NC(=C1N=C2C=CC=CN2C1=O)c1ccccc1 [ZS 167]	-0.1
C=CCOc1ccc(C=C2N=C(C)N(C)C2=O)cc1 [X 8]	0
CC1=NC(=Cc2ccc(N3CCCCCC3)cc2)C(=O)N1C [N 708.2]	0.2
O=C1NC(=S)SC1=Cc1ccc(O)cc1Br [SAI 122]	0.1
COc1ccc(C=C2N=C(Nc3ccc(Br)cc3)N(C)C2=O)cc1 [SA 158]	0.2
CN1C(=O)C(=Cc2ccc(O)cc2)N=C1C=Cc1ccncc1 [ccA 9]	0.3
CC1=NC(=Cc2ccc(Br)cc2)C(=O)N1Cc1ccccc1 [X 9]	-0.6
CC1=NC(=Cc2ccc(F)cc2)C(=O)N1C [SV 50.10]	-0.2
CN1C(=O)C(=Cc2ccc(O)cc2)N=C1C=CC=Cc1ccccc1 [ccA 4]	0.8
CCOC(=O)CN1C(=O)C(=Cc2ccc(O)cc2)N=C1C [M 1831.1]	-0.2
CC1=NC(=Cc2ccc([N+](=O)[O-])cc2)C(=O)N1C1CCCCC1 [ZS 146]	0.2
CC(=O)C1=NC(=Cc2ccc(O)cc2)C(=O)N1C [X 18]	0.6
CCN(CC)c1ccc(C=C2N=C(C)N(CCCCCl)C2=O)cc1 [N 189]	0.2
COc1ccc(C=C2N=C(C(C)(C)C)N(C)C2=O)cc1 [M 440]	-0.1
CC1=NC(=Cc2ccc(O)c(F)c2)C(=O)N1CC(N)=O [SA 99]	0.1
CC1=NC(=Cc2ccc(N(C)C)cc2)C(=O)N1CCNC(=O)OC(C)(C)C [M 2022a]	-0.2
CNC(=O)C(=Cc1ccc(O)c(CO)c1)NC(=O)c1ccccc1 [X 29]	-0.6
CC=CC=CC1=NC(=Cc2ccc(O)cc2)C(=O)N1C [ccA 8]	0.2
COc1ccc(C=C2N=C(SC)N(C)C2=O)cc1 [VZ 1]	0.4
CC1=NC(=Cc2ccc(O)c(C#N)c2)C(=O)N1C [M 2489.2]	-0.5
COc1ccc(C=C2C(=O)N(C)C(C)=[N+]2C)cc1.O=S(=O)([O-])C(F)(F)F [M 2060]	-0.2
COc1ccc(C=C2N=C(C)N(Cc3ccccc3)C2=O)cc1 [ZS 128]	-0.3
COc1cc(O)cc(OC)c1C=C1N=C(C=Cc2cc(Cl)nc(Cl)c2)N(C)C1=O [N 973]	2.3
COc1ccc2cc(CO)ccc2c1 [N 49]	-0.1
COc1ccc2cc(OC)c(C=C3N=C(C)N(C)C3=O)cc2c1 [SA 410]	-0.2
